Assay results from US8093272B2 (priority 2004, dated 2012).

Experiments:
[1] = tested on: 5-HT-uptake; experiment: Measurement of serotonin re-uptake in rat brain synaptosomes (P2 fraction, medulla+pons region); type: biochemical; conditions: synaptosomes from medulla+pons region of male rats' brains
Protocol: Measurement of Serotonin Re-Uptake
In order to carry out these in vitro studies, synaptosomes were freshly isolated from areas of rats' brains. In each case, what is known as a “P2” fraction, which was prepared in accordance with Gray and Whittaker's directions (E. G. Gray and V. P. Whittaker (1962) J. Anat. 76, 79-88), was used. For the 5HT-e, uptake these vesicular particles were isolated from the medulla+pons region of male rats' brains.
A detailed description of the method can be found in the literature (M. Ch. Frink, H.-H. Hennies, W. Englberger, M. Haurand and B. Wilffert (1996) Arzneim.-Forsch./Drug Res. 46 (III), 11, 1029-1036).

[2] = tested on: NA-uptake; experiment: Measurement of noradrenalin re-uptake in rat brain synaptosomes (P2 fraction, hypothalamus); type: biochemical; conditions: synaptosomes from hypothalamus of male rats' brains
Protocol: Measurement of Noradrenalin Re-Uptake
In order to carry out these in vitro studies, synaptosomes were freshly isolated from rat brain areas. In each case, what is known as a “P2” fraction, which was prepared in accordance with Gray and Whittaker's directions (E. G. Gray and V. P. Whittaker (1962) J. Anat. 76, 79-88), was used. For the NA-uptake, uptake these vesicular particles were isolated from the hypothalamus of male rats' brains.
A detailed description of the method can be found in the literature (M. Ch. Frink, H.-H. Hennies, W. Englberger, M. Haurand and B. Wilffert (1996) Atzneim.-Forsch./Drug Res. 46 (III), 11, 1029-1036).

Cc1onc(-c2ccccc2Cl)c1C(=O)NC1CCC(c2cccc(F)c2)(N(C)C)CC1.Cl (single isomer, unassigned) [Example 119, 3-(2-chlorophenyl)-5-methylisoxazole-4-carboxylic acid [4-dimethyl-amino-4-(3-fluorophenyl)cyclohexyl]amide hydrochloride, polar diastereoisomer]
5-HT-uptake, 10 μM, % inhibition [1]: 86%
NA-uptake, 10 μM, % inhibition [2]: 59%

Cc1onc(-c2ccccc2Cl)c1C(=O)NC1CCC(c2cccc(F)c2)(N(C)C)CC1.Cl (single isomer, unassigned) [Example 118, 3-(2-chlorophenyl)-5-methylisoxazole-4-carboxylic acid [4-dimethyl-amino-4-(3-fluorophenyl)cyclohexyl]amide hydrochloride, non-polar diastereoisomer]
5-HT-uptake, 10 μM, % inhibition [1]: 50%
